Data: patent US11267830B2, “Flow battery and components thereof” (University of Massachusetts, priority 2017, dated 2022)
Where two headings read alike, the source gives them in different places.

Columns and labels:
[1] = Cyclic voltammetry (formal potential, diffusion coefficient); format: physicochemical; conditions: for diffusion coefficient for the one-electron oxidation: 0.5 M TBAPF6, Randles-Sevcik fit
Protocol: (§1) Cyclic voltammetry was carried out in DMSO using a 3 mm glassy carbon electrode as working electrode, a Pt wire counter electrode, a silver wire pseudo reference electrode and tetrabutylammonium hexafluorophosphate as supporting […]. Ferrocene was used as an internal potential reference. Static cell cycling was carried out using graphite felt (Alfa Aesar, part #AA14630RR) which was heat-treated in a furnace at 250° C. under air, overnight, before use.
CV data with variable scan rates were used to determine the diffusion coefficient for the one-electron oxidation of CVBH^−2 by fitting with the Randles-Sevcik equation. In addition, to investigate the effect of solvent on this property, the analysis was carried out in propylene carbonate (PC).

[2] = reduced, vanadium(iv) state; cited from earlier work
[3] = earlier study, sample contaminated by mono-sodium salt of the ligand; cited from earlier work
[4] = Metal-ligand stability constant; format: physicochemical; conditions: oxidized, vanadium(v) state; deduced using a thermodynamic cycle
Excerpt: (§2) Any decomposition of CVBH under these conditions would be evident as a decrease in peak current and changes in reversibility, as the identity of the species present at the electrode evolved over time. […] This is in stark contrast to the anaerobic and anhydrous conditions that are necessary in handling other NRFB active materials. […] This occurs even in ostensibly anhydrous systems due to the presence of adventitious water, and is the result of ligand substitution, yielding a vanadyl (V═O) species that is nearly ubiquitous in aqueous vanadium(iv) coordination chemistry. It should be further noted that CVBH is stable in both the reduced, vanadium(iv), state (as-synthesized) and the oxidized, vanadium(v) state, with metal ligand stability constants of 8.2×10^21 and 2.6×10^23, respectively. While the former has been measured, the latter can be deduced using a thermodynamic cycle, constructed from published data for the vanadium(iv/v) reduction potentials of CVBH and aqueous, acidic vanadium ions, along with the metal-ligand stability constant of CVBH in the vanadium(iv) oxidation state (FIG. 4).

[5] = Static cell cycling to ~80% state of charge; format: physicochemical; conditions: more than 90 cycles, 0.35 V and −0.35 V vs. open circuit
Protocol: as §1
As such, the behavior of CVBH during cycling to ˜80% state of charge was investigated by alternately applying potentials of 0.35 V and −0.35 V vs. open circuit to oxidize and reduce the compound, respectively. […] Some decrease in peak current over time was observed (FIG. 5B), however, it was restored after stirring was stopped for 20 minutes (FIG. 5B, dotted line).

[6] = Solubility in solvents; format: physicochemical; conditions: solvents other than DMSO and water
Excerpt: Since the solubility of CVBH is low in solvents other than DMSO and water, investigation of the electrochemistry in PC necessitated the synthesis of the bis-tetramethylammonium (TMA) salt of vanadium bis-hydroxyiminodiacetate (VBH), which was characterized using FTIR and X-ray crystallography (FIG. 2). While the coordination sphere of the VBH dianion is unperturbed compared to that of CVBH, solubility is greatly altered with two diffuse TMA countercations compared to the Ca^+2 counter-cation of CVBH. Altering the cation(s) of VBH^2− is a way to tune solubility in various battery-relevant solvents and compatibility with an array of membrane/separator architectures and supporting electrolytes. These attributes are paramount to realization of high power and energy densities in NRFB systems and this strategy offers a promising avenue for optimization.

[7] = Exhaustive cycling using cyclic voltammetry (stability); format: physicochemical
Protocol: as §1
as §2, with “It should be further noted that CVBH is stable in both the reduced, vanadium(iv), state (as-synthesized) and the oxidized, vanadium(v) state, with metal ligand stability constants of 8.2×10^21 and 2.6×10^23, respectively.” left out

[8] = when oxidized to the 4+ state; cited from earlier work

Row | Structure (SMILES) | diffusion coefficient for the one-electron oxidation ([1]; DMSO) | formal potential (E°′=E1/2) ([1]; DMSO, ferrocene as internal standard) | diffusion coefficient for the one-electron oxidation ([1]; propylene carbonate (PC)) | metal ligand stability constant [2] | formal potential, previously reported value [3] [V vs. SHE] | metal ligand stability constant [4] | change in CV before and after static cell cycling [5] | solubility [6] | change in voltammogram after addition of water ([7]; 20% water (by volume) in the presence of oxygen) | change in voltammogram on exhaustive CV cycling ([7]; over 800 cycles) | stability in the presence of water [8]
1 | O.O.O.O.O.O=C([O-])CN(O)CC(=O)[O-].O=C([O-])CN(O)CC(=O)[O-].[Ca].[V+4] [CVBH, Calcium(ii) vanadium(iv)bis-hydroxyiminodiacetate pentahydrate] | 8.3×10^−7 cm^2·s^−1 | 0.30 V vs standard hydrogen electrode (SHE) | 5.6×10^−7 cm^2·s^−1 | 8.2×10^21 | 0.38 | 2.6×10^23 | no observed change in the shape of the CV | low | no change in voltammogram shape | virtually no change in the shape of the voltammogram | –
2 | CC(=O)/C=C(/C)O.CC(=O)/C=C(/C)O.CC(=O)/C=C(/C)O.[V] [V(acac)3] | – | – | – | – | – | – | – | – | – | – | rapidly decomposes
